Measurements as given in ChEMBL document CHEMBL1201862, “PubChem BioAssay data set” (2004).
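The compound was tested at five concentrations on cells cultured in 96-well plates, with a 48-hour exposure period. At the GI50, growth is halved.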 Activity calls are given as the source filed them. No stated cut-off is given here; in the data, active = GI50 up to about 1.1 µM and inactive = higher. Where a SMILES comes first, the peptide text is derived from it. The star is where a group is joined. Boc = CC(C)(C)OC(=O)*; OSu = O=C1CCC(=O)N1O*

Legend:
Test in all cases: inhibition of tumour cell growth, NCI panel, 48 h
[1] = tested on: MCF7
[2] = tested on: U-251
[3] = tested on: MDA-MB-231
[4] = tested on: LOX IMVI
[5] = tested on: HT-29
[6] = tested on: MOLT-4
[7] = tested on: SK-MEL-2
[8] = tested on: PC-3
[9] = tested on: 786-0
[10] = tested on: NCI-H23
[11] = tested on: RPMI-8226
[12] = tested on: NCI-H226
[13] = tested on: OVCAR-5
[14] = tested on: HCT-15
[15] = tested on: RXF 393
[16] = tested on: Malme-3M
[17] = tested on: UACC-62
[18] = tested on: ACHN
[19] = tested on: K562
[20] = tested on: SF-268
[21] = tested on: SF-539
[22] = tested on: OVCAR-4
[23] = tested on: SNB-19
[24] = tested on: OVCAR-3
[25] = tested on: HOP-62
[26] = tested on: DU-145
[27] = tested on: CCRF-CEM
[28] = tested on: SW-620
[29] = tested on: BT-549
[30] = tested on: SK-MEL-28
[31] = tested on: SR
[32] = tested on: UO-31
[33] = tested on: MDA-MB-435
[34] = tested on: A498
[35] = tested on: Hs-578T
[36] = tested on: TK-10
[37] = tested on: HCT-116
[38] = tested on: EKVX
[39] = tested on: SK-MEL-5
[40] = tested on: MDA-N
[41] = tested on: A549
[42] = tested on: NCI-H460
[43] = tested on: T47D
[44] = tested on: NCI-H522
[45] = tested on: HOP-92
[46] = tested on: COLO 205
[47] = tested on: SF-295
[48] = tested on: CAKI-1
[49] = tested on: HL-60
[50] = tested on: UACC-257
[51] = tested on: SK-OV-3
[52] = tested on: SN12C
[53] = tested on: HCC 2998
[54] = tested on: M14
[55] = tested on: IGROV-1
[56] = tested on: SNB-75
[57] = tested on: KM12
[58] = tested on: NCI/ADR-RES
[59] = tested on: OVCAR-8

## COc1ccc2nc3cc([N+](=O)[O-])ccc3c(Nc3ccc(S(=O)(=O)NC(C)=O)cc3)c2c1
[1]
  GI50: 30.8 µM (inactive)
[2]
  GI50: 44.8 µM (inactive)
[3]
  GI50: 50 µM (inactive)
[4]
  GI50: 93.3 µM (inactive)
[5]
  GI50: 65 µM (inactive)
[6]
  GI50: 29.4 µM (inactive)
[7]
  GI50: > 100 µM (inactive)
[8]
  GI50: 45.5 µM (inactive)
[9]
  GI50: 47 µM (inactive)
[10]
  GI50: > 100 µM (inactive)
[11]
  GI50: 22.1 µM (inactive)
[12]
  GI50: > 100 µM (inactive)
[13]
  GI50: > 100 µM (inactive)
[14]
  GI50: 71.1 µM
[15]
  GI50: > 100 µM (inactive)
[16]
  GI50: > 100 µM (inactive)
[17]
  GI50: 73.3 µM (inactive)
[18]
  GI50: 88.1 µM (inactive)
[19]
  GI50: 37.2 µM (inactive)
[20]
  GI50: > 100 µM (inactive)
[21]
  GI50: > 100 µM (inactive)
[22]
  GI50: > 100 µM (inactive)
[23]
  GI50: > 100 µM (inactive)
[24]
  GI50: 38.1 µM (inactive)
[25]
  GI50: > 100 µM (inactive)
[26]
  GI50: 90.6 µM (inactive)
[27]
  GI50: 23.9 µM (inactive)
[28]
  GI50: 46.8 µM (inactive)
[29]
  GI50: > 100 µM (inactive)
[30]
  GI50: > 100 µM (inactive)
[31]
  GI50: 11.5 µM (inactive)
[32]
  GI50: 73.6 µM (inactive)
[33]
  GI50: 76.4 µM (inactive)
[34]
  GI50: > 100 µM (inactive)
[35]
  GI50: 85.9 µM (inactive)
[36]
  GI50: 53.2 µM (inactive)
[37]
  GI50: 44 µM (inactive)
[38]
  GI50: 85.3 µM (inactive)
[39]
  GI50: 16.6 µM (inactive)
[40]
  GI50: > 100 µM (inactive)
[41]
  GI50: > 100 µM (inactive)
[42]
  GI50: 40.6 µM (inactive)
[43]
  GI50: > 100 µM (inactive)
[44]
  GI50: 33.2 µM (inactive)
[45]
  GI50: > 100 µM (inactive)
[46]
  GI50: 51.3 µM (inactive)
[47]
  GI50: > 100 µM (inactive)
[48]
  GI50: > 100 µM (inactive)
[49]
  GI50: 26.5 µM (inactive)
[50]
  GI50: > 100 µM (inactive)
[51]
  GI50: > 100 µM (inactive)
[52]
  GI50: > 100 µM (inactive)
[53]
  GI50: 56.6 µM (inactive)
[54]
  GI50: > 100 µM (inactive)

## COc1ccc2c(c1)C(N)=C(Cc1ccncc1)C2=O
[1]
  GI50: 82.4 µM (inactive)
[2]
  GI50: > 100 µM (inactive)
[3]
  GI50: > 100 µM (inactive)
[4]
  GI50: > 100 µM (inactive)
[55]
  GI50: 56.9 µM (inactive)
[5]
  GI50: > 100 µM (inactive)
[56]
  GI50: 28.4 µM (inactive)
[6]
  GI50: 63.1 µM (inactive)
[7]
  GI50: > 100 µM (inactive)
[8]
  GI50: 91.8 µM (inactive)
[9]
  GI50: > 100 µM (inactive)
[10]
  GI50: > 100 µM (inactive)
[11]
  GI50: > 100 µM (inactive)
[14]
  GI50: > 100 µM
[15]
  GI50: > 100 µM (inactive)
[16]
  GI50: > 100 µM (inactive)
[17]
  GI50: 81.3 µM (inactive)
[18]
  GI50: > 100 µM (inactive)
[19]
  GI50: > 100 µM (inactive)
[20]
  GI50: > 100 µM (inactive)
[21]
  GI50: > 100 µM (inactive)
[22]
  GI50: 98.4 µM (inactive)
[57]
  GI50: > 100 µM (inactive)
[23]
  GI50: > 100 µM (inactive)
[24]
  GI50: > 100 µM (inactive)
[25]
  GI50: > 100 µM (inactive)
[26]
  GI50: > 100 µM (inactive)
[27]
  GI50: 75.2 µM (inactive)
[28]
  GI50: > 100 µM (inactive)
[29]
  GI50: > 100 µM (inactive)
[30]
  GI50: > 100 µM (inactive)
[32]
  GI50: 46 µM (inactive)
[33]
  GI50: > 100 µM (inactive)
[34]
  GI50: > 100 µM (inactive)
[35]
  GI50: > 100 µM (inactive)
[36]
  GI50: > 100 µM (inactive)
[37]
  GI50: > 100 µM (inactive)
[38]
  GI50: 53.5 µM (inactive)
[39]
  GI50: > 100 µM (inactive)
[40]
  GI50: > 100 µM (inactive)
[41]
  GI50: > 100 µM (inactive)
[42]
  GI50: > 100 µM (inactive)
[58]
  GI50: > 100 µM (inactive)
[43]
  GI50: 55.2 µM (inactive)
[44]
  GI50: 89.7 µM (inactive)
[45]
  GI50: 31.4 µM (inactive)
[46]
  GI50: > 100 µM (inactive)
[59]
  GI50: > 100 µM (inactive)
[47]
  GI50: > 100 µM (inactive)
[48]
  GI50: > 100 µM (inactive)
[49]
  GI50: 49.4 µM (inactive)
[50]
  GI50: > 100 µM (inactive)
[51]
  GI50: > 100 µM (inactive)
[52]
  GI50: 63 µM (inactive)
[54]
  GI50: > 100 µM (inactive)

## CC(NC(=O)C(NC(=O)OC(C)(C)C)C(C)C)C(=O)NCC(=O)ON1C(=O)CCC1=O (stereo not drawn) (Boc-Val-Ala-Gly-OSu; configuration not given here)
[1]
  GI50: > 100 µM (inactive)
[2]
  GI50: > 100 µM (inactive)
[3]
  GI50: > 100 µM (inactive)
[55]
  GI50: > 100 µM (inactive)
[5]
  GI50: > 100 µM (inactive)
[56]
  GI50: > 100 µM (inactive)
[6]
  GI50: 45.9 µM (inactive)
[7]
  GI50: > 100 µM (inactive)
[8]
  GI50: > 100 µM (inactive)
[9]
  GI50: > 100 µM (inactive)
[10]
  GI50: > 100 µM (inactive)
[11]
  GI50: > 100 µM (inactive)
[12]
  GI50: > 100 µM (inactive)
[13]
  GI50: > 100 µM (inactive)
[14]
  GI50: > 100 µM
[15]
  GI50: > 100 µM (inactive)
[16]
  GI50: > 100 µM (inactive)
[17]
  GI50: > 100 µM (inactive)
[18]
  GI50: > 100 µM (inactive)
[19]
  GI50: > 100 µM (inactive)
[20]
  GI50: > 100 µM (inactive)
[21]
  GI50: > 100 µM (inactive)
[57]
  GI50: > 100 µM (inactive)
[23]
  GI50: > 100 µM (inactive)
[24]
  GI50: > 100 µM (inactive)
[25]
  GI50: > 100 µM (inactive)
[26]
  GI50: > 100 µM (inactive)
[28]
  GI50: > 100 µM (inactive)
[29]
  GI50: > 100 µM (inactive)
[30]
  GI50: > 100 µM (inactive)
[31]
  GI50: > 100 µM (inactive)
[32]
  GI50: > 100 µM (inactive)
[33]
  GI50: > 100 µM (inactive)
[35]
  GI50: > 10 µM (inactive)
[36]
  GI50: > 100 µM (inactive)
[37]
  GI50: > 100 µM (inactive)
[38]
  GI50: > 100 µM (inactive)
[39]
  GI50: > 100 µM (inactive)
[40]
  GI50: > 100 µM (inactive)
[41]
  GI50: > 100 µM (inactive)
[42]
  GI50: > 100 µM (inactive)
[58]
  GI50: > 100 µM (inactive)
[43]
  GI50: > 100 µM (inactive)
[44]
  GI50: 63.4 µM (inactive)
[45]
  GI50: 22.8 µM (inactive)
[46]
  GI50: > 100 µM (inactive)
[59]
  GI50: > 100 µM (inactive)
[47]
  GI50: > 100 µM (inactive)
[48]
  GI50: > 100 µM (inactive)
[50]
  GI50: > 100 µM (inactive)
[51]
  GI50: > 100 µM (inactive)
[52]
  GI50: > 100 µM (inactive)
[53]
  GI50: > 100 µM (inactive)
[54]
  GI50: 88.1 µM (inactive)
